Measured values: PubChem BioAssay (NCI)
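Growth conditions: 96-well plates. Treatment: test compound, 48 hours, 5 concentrations. Analysis: linear interpolation between bracketing concentrations; unreached endpoints set to highest concentration. The concentration for full growth arrest is given as TGI.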 *1 amine or outer side, *2 acyl side, *3 side chain or, on linkers, in order; H or OH if unused. Where a SMILES comes first, the peptide text is derived from it. Bridges are numbered along the chain shown (N, C = ends). Roman numbers before positions name the chains, in order. [ ]: non-standard residue; d: D form. Actinocin(9to1) = Cc1c2oc3c(C)ccc(C(=O)[*:1])c3nc-2c(C(=O)[*:2])c(N)c1=O; X48 = O=C1CC(C(=O)[*:2])N([*:1])C1; NMeV = CN[CH](C(=O)O)C(C)C; Sar = CNCC(=O)O

Legend:
Test in all cases: DTP human tumour cell line panel, 48 h
UACC-62 melanoma = tested on: UACC-62 melanoma
786-0 renal = tested on: 786-0 renal
SF-268 CNS = tested on: SF-268 CNS
PC-3 prostate = tested on: PC-3 prostate
HOP-92 NSCLC = tested on: HOP-92 NSCLC
NCI-H460 lung = tested on: NCI-H460 lung
HCT-15 colon = tested on: HCT-15 colon
RPMI-8226 leukemia = tested on: RPMI-8226 leukemia
DU-145 prostate = tested on: DU-145 prostate
NCI/ADR-RES ovarian = tested on: NCI/ADR-RES ovarian
ACHN renal = tested on: ACHN renal
M14 melanoma = tested on: M14 melanoma
HT29 colon = tested on: HT29 colon
COLO 205 colon = tested on: COLO 205 colon
MCF7 breast = tested on: MCF7 breast
HCC-2998 colon = tested on: HCC-2998 colon
OVCAR-3 ovarian = tested on: OVCAR-3 ovarian
SN12C renal = tested on: SN12C renal
BT-549 breast = tested on: BT-549 breast

Row | SMILES | TGI (UACC-62 melanoma) | TGI (786-0 renal) | TGI (SF-268 CNS) | TGI (PC-3 prostate) | TGI (HOP-92 NSCLC) | TGI (NCI-H460 lung) | TGI (HCT-15 colon) | TGI (RPMI-8226 leukemia) | TGI (DU-145 prostate) | TGI (NCI/ADR-RES ovarian) | TGI (ACHN renal) | TGI (M14 melanoma) | TGI (HT29 colon) | TGI (COLO 205 colon) | TGI (MCF7 breast) | TGI (HCC-2998 colon) | TGI (OVCAR-3 ovarian) | TGI (SN12C renal) | TGI (BT-549 breast)
1 | NCC#CCNCCCN1CC1 | > 100 µM | > 100 µM | > 100 µM | > 100 µM | > 100 µM | > 100 µM | > 100 µM | > 100 µM | > 100 µM | > 100 µM | > 100 µM | > 100 µM | > 100 µM | > 100 µM | > 100 µM | > 100 µM | > 100 µM | > 100 µM | 
2 | Cn1c(=O)c2c(no[n+]2[O-])n(C)c1=O | 40.5 µM | 71.8 µM | 55.7 µM | > 100 µM | 44.1 µM | > 100 µM | > 100 µM | > 100 µM |  | 46 µM | > 100 µM | > 100 µM | > 100 µM | 43.9 µM | > 100 µM | > 100 µM | > 100 µM | > 100 µM | 51.9 µM
3 | COC1O[C@@H]2CCN3C(=O)[C@@H](OC(=O)c4ccc([N+](=O)[O-])cc4)[C@H]1C23 (some centres undefined) | > 100 µM | > 100 µM | > 100 µM |  | > 100 µM | > 100 µM |  | > 100 µM | > 100 µM | > 100 µM | > 100 µM | > 100 µM | > 100 µM | > 100 µM | > 100 µM | > 100 µM | > 100 µM | > 100 µM | 
4 | Cc1c2oc3c(C)ccc(C(=O)NC4C(=O)NC(C(C)C)C(=O)N5CC(=O)CC5C(=O)N(C)CC(=O)N(C)C(C(C)C)C(=O)OC4C)c3nc-2c(C(=O)NC2C(=O)NC(C(C)C)C(=O)N3CC(=O)CC3C(=O)N(C)CC(=O)N(C)C(C(C)C)C(=O)OC2C)c(N)c1=O (centres undefined) (I: TV[X48][Sar][NMeV] / II: TV[X48][Sar][NMeV]; ester I:1-I:C, II:1-II:C; linker I:N-II:N via Actinocin(9to1); configuration not given here) |  | > 1 µM |  | > 1 µM | > 1 µM | > 1 µM | > 1 µM | > 1 µM | > 1 µM | > 1 µM | > 1 µM | > 1 µM | > 1 µM | > 1 µM | > 1 µM | > 1 µM | > 1 µM | > 1 µM | 
5 | CCOP(=O)(OCC)C1CC(O)CN1OC(=O)C(C)(C)C (centres undefined) | > 100 µM | > 100 µM | > 100 µM | > 100 µM |  |  | > 100 µM | > 100 µM | > 100 µM | > 100 µM | > 100 µM | > 100 µM | > 100 µM | > 100 µM | > 100 µM |  | > 100 µM | > 100 µM | 
6 | OCC1NCC(O)C(O)C1O (centres undefined) | > 100 µM | > 100 µM | > 100 µM | > 100 µM | > 100 µM | > 100 µM | > 100 µM | > 100 µM | > 100 µM |  | > 100 µM | > 100 µM | > 100 µM | > 100 µM | > 100 µM | > 100 µM | > 100 µM | > 100 µM | > 100 µM
7 | O=C1c2cccnc2S(=O)N1Cc1ccccc1 (centres undefined) | > 100 µM | > 100 µM | > 100 µM |  | > 100 µM | > 100 µM | > 100 µM | > 100 µM | > 100 µM | > 100 µM | > 100 µM | > 100 µM | > 100 µM | > 100 µM | > 100 µM | > 100 µM |  | > 100 µM | > 100 µM
8 | CCc1ccc(Nc2cc(=O)[nH]c(SCc3ccccc3)n2)cc1 | > 100 µM | > 100 µM | > 100 µM |  | > 100 µM |  | > 100 µM | > 100 µM | > 100 µM | > 100 µM | > 100 µM | > 100 µM | > 100 µM | > 100 µM | > 100 µM |  | > 100 µM | > 100 µM | > 100 µM
9 | O=C1OCC2(CO1)CC1C=CC2C1 (centres undefined) | > 100 µM | > 100 µM | > 100 µM | > 100 µM | > 100 µM | > 100 µM | > 100 µM | > 100 µM | > 100 µM | > 100 µM | > 100 µM | > 100 µM | > 100 µM | > 100 µM | > 100 µM | > 100 µM | > 100 µM | > 100 µM | 
10 | CC(C)(C)[Si](C)(C)OCCCCC1CC2(S(=O)(=O)C3=CC=C=C=C3)ON1CC2S(=O)(=O)c1ccccc1 (centres undefined) | > 100 µM | > 100 µM | > 100 µM |  | > 100 µM | > 100 µM | > 100 µM | > 100 µM | > 100 µM | > 100 µM | > 100 µM | > 100 µM | > 100 µM | > 100 µM | > 100 µM | > 100 µM | > 100 µM | > 100 µM | > 100 µM
11 | CC1(C)CC[C@]2(C(=O)O)CC[C@]3(C)C(=CC[C@@H]4[C@@]5(C)C[C@H](O)[C@H](O)[C@@](C)(CO)C5=CC[C@]43C)[C@@H]2C1 | > 100 µM | > 100 µM | > 100 µM | > 100 µM | > 100 µM | 72.2 µM | > 100 µM | > 100 µM | > 100 µM | > 100 µM | > 100 µM | > 100 µM | > 100 µM | 42.4 µM | > 100 µM | 92.6 µM | > 100 µM | > 100 µM | 
12 | Nc1ncnc2c1ncn2C1C=CC(CP(=O)(O)O)C1 (centres undefined) | > 100 µM | > 100 µM | > 100 µM | > 100 µM |  | > 100 µM | > 100 µM | > 100 µM | > 100 µM | > 100 µM | > 100 µM | > 100 µM | > 100 µM | > 100 µM | > 100 µM | > 100 µM | > 100 µM | > 100 µM | 
13 | CCOC(=O)CC(=O)C(=O)NNC1=NCCCN1 | > 100 µM | > 100 µM | > 100 µM | > 100 µM | > 100 µM | > 100 µM | > 100 µM | > 100 µM | > 100 µM |  | > 100 µM | > 100 µM | > 100 µM | > 100 µM | > 100 µM | > 100 µM | > 100 µM | > 100 µM | > 100 µM
14 | C[C@]12CCC(=O)C=C1CC[C@@H]1[C@@H]2CC[C@]2(C)C(=O)[C@H](n3ccnc3)C[C@@H]12 | > 100 µM | > 100 µM | > 100 µM | > 100 µM | > 100 µM | > 100 µM | > 100 µM | > 100 µM | > 100 µM | > 100 µM | > 100 µM | > 100 µM | > 100 µM | > 100 µM | > 100 µM |  |  | > 100 µM | 
15 | CC(C)OCC(O)COc1ccc2ccc(=O)oc2c1 (centres undefined) | > 100 µM | > 100 µM | > 100 µM | > 100 µM | > 100 µM | > 100 µM | > 100 µM | > 100 µM | > 100 µM | > 100 µM | > 100 µM | > 100 µM | > 100 µM | > 100 µM | > 100 µM | > 100 µM | > 100 µM | > 100 µM | 
16 | O=C(C#CP(=O)(O)c1ccccc1)c1ccccc1 | > 100 µM | > 100 µM | > 100 µM | > 100 µM | > 100 µM | > 100 µM | > 100 µM |  | > 100 µM | > 100 µM | > 100 µM | > 100 µM | > 100 µM | > 100 µM | > 100 µM | > 100 µM | > 100 µM | > 100 µM | 
17 | COC(=O)CCC(NC(=O)C(C)NC(=O)COC1C(O)C(OC(=O)CCNc2c3ccccc3nc3cccc([N+](=O)[O-])c23)OC(OCc2ccccc2)C1NC(C)=O)C(N)=O (centres undefined) | > 10 µM | > 10 µM | > 10 µM | > 10 µM | > 10 µM | > 10 µM | > 10 µM |  | 7.06 µM |  | > 10 µM | > 10 µM | > 10 µM |  | 9.81 µM | 5.8 µM | > 10 µM | > 10 µM | > 10 µM
18 | COC1=NC(NC2OCC(O)C(O)C2O)=C(NC(C)=O)CN1C (centres undefined) | > 100 µM | > 100 µM | > 100 µM |  | > 100 µM | > 100 µM | > 100 µM | > 100 µM | > 100 µM | > 100 µM | > 100 µM | > 100 µM | > 100 µM | > 100 µM | > 100 µM | > 100 µM | > 100 µM |  | > 100 µM
19 | CCCCCCCC/C=C\CCCCCCC(F)C(=O)O (centres undefined) |  | > 12.5 µM | > 12.5 µM | > 12.5 µM | > 12.5 µM |  | > 12.5 µM | > 12.5 µM | > 12.5 µM | > 12.5 µM | > 12.5 µM | > 12.5 µM | > 12.5 µM | > 12.5 µM | > 12.5 µM | > 12.5 µM | > 12.5 µM | > 12.5 µM | 
20 | CCOC(=O)c1nc2ccccc2nc1NCc1ccc(OC)cc1 | > 100 µM | > 100 µM | > 100 µM |  | > 100 µM | > 100 µM | > 100 µM | > 100 µM | > 100 µM | > 100 µM | > 100 µM |  | > 100 µM | > 100 µM | > 100 µM | > 100 µM | > 100 µM |  | > 100 µM
